The target in one assay is T1, CFTR ΔF508 mutant (Homo sapiens, UniProt P13569, DEL508-508).
T1 construct: expressed in transfected cells; host or cells: CFBE41o- cells, adenoviral transduction
The experiment in a line: YFP-halide influx assay for the CFTR-ΔF508 mutation (CFBE41o- cells). It counts as cell-based. The following applies: forskolin 10.67 μM; for EC50: from (1−F/F0) vs concentration plot. In short, it runs like this:
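EC50 derived from plotting 1−F/F0 (fluorescence 36 s after iodide injection over pre-injection value) against compound concentration. Cells: CFBE41o- transduced with ΔF508-CFTR and YFP quench reporter, corrected 24 h at 27° C or by a CFTR modulator at 37° C.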

A further assay has as its target T2, CFTR G551D mutant (Homo sapiens, UniProt P13569, G551D).
T2 construct: expressed in transfected cells; host or cells: HEK293 cells, reverse transfection with plasmids
The experiment in a line: YFP-halide influx assay for the CFTR-G551D mutation (HEK293 cells). It counts as cell-based. Particulars: forskolin 10.67 μM. In short, it runs like this: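 Channel opening read as I⁻-driven quenching of a YFP H148Q/I152L/F47L reporter over 7 s post-injection, expressed as 1−F/F0 and fitted against concentration for EC50. Cells were HEK293 co-transfected at seeding with G551D CFTR plus reporter, then grown 24 h at 37 °C, 5% CO2.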

T1 sequence (P13569 with tags, fused parts or gaps DEL508-508): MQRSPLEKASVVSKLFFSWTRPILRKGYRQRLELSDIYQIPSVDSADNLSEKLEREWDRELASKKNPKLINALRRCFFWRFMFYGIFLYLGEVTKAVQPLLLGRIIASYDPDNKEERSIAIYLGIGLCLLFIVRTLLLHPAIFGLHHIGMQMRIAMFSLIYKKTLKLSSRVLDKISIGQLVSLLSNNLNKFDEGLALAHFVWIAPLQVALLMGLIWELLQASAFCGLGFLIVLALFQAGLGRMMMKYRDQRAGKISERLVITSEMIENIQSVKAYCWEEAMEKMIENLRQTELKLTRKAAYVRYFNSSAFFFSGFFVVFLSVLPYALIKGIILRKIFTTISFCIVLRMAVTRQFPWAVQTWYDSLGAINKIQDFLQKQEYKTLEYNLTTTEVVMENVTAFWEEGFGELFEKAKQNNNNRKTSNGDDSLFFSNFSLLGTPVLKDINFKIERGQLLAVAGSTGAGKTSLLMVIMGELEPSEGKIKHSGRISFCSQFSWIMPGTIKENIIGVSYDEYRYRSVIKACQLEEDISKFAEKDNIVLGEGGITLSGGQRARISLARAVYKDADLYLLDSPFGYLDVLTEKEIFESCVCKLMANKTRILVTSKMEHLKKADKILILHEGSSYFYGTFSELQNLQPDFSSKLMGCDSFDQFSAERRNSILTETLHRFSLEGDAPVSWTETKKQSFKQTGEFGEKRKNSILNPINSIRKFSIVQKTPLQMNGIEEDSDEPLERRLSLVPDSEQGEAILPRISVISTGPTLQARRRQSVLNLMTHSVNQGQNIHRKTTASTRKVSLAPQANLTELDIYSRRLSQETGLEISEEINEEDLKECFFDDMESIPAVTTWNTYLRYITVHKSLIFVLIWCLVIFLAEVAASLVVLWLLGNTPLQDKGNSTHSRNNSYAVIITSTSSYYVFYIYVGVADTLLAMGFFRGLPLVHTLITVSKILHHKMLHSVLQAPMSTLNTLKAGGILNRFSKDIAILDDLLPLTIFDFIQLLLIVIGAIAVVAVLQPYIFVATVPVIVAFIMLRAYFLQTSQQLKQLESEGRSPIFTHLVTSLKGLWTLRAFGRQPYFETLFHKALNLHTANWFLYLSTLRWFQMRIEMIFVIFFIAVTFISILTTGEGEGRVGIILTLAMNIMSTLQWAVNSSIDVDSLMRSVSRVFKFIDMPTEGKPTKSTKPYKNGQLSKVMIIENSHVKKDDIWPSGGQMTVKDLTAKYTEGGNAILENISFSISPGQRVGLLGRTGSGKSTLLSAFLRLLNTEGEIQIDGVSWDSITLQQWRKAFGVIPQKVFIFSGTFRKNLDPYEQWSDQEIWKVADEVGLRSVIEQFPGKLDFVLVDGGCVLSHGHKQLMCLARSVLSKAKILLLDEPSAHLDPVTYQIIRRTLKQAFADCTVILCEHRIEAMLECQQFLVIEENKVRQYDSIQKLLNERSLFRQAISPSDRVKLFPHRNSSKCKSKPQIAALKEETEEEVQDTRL
T2 sequence (P13569 whole entry G551D): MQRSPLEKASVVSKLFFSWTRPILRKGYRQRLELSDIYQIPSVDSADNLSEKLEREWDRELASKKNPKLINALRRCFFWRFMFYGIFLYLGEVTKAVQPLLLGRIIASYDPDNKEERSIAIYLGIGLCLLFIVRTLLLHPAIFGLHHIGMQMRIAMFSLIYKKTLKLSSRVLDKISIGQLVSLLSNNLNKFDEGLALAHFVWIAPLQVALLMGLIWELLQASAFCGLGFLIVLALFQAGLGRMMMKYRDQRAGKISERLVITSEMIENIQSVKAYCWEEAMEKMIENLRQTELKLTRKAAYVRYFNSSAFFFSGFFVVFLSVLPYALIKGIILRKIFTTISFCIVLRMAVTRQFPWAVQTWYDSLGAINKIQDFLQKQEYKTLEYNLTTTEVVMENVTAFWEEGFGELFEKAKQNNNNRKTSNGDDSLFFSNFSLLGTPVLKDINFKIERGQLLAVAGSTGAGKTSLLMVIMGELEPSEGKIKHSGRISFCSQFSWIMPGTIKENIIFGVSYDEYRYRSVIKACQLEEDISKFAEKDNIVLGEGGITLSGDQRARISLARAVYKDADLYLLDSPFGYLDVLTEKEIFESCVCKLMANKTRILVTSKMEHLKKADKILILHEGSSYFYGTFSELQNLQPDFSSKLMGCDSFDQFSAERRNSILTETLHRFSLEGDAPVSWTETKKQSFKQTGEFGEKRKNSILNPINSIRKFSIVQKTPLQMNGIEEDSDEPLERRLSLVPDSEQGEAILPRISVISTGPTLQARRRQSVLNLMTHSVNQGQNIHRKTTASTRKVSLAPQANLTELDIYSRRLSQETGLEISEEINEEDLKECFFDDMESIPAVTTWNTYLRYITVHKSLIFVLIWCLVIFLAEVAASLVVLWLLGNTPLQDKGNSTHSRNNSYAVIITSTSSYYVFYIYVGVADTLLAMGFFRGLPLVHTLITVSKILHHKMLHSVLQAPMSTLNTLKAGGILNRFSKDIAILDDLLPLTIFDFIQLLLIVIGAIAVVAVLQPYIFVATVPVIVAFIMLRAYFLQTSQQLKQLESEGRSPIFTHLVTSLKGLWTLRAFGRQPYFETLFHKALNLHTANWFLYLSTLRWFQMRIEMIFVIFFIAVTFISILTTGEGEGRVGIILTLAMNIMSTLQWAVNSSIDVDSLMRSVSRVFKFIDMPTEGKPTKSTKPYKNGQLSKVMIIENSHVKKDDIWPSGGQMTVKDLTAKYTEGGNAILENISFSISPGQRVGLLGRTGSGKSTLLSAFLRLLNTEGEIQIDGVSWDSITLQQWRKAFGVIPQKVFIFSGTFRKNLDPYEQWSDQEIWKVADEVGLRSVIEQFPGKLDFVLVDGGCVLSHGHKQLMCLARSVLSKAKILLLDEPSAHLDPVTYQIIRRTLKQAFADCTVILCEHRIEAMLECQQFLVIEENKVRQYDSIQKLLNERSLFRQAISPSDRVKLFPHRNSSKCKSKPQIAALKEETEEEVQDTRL

In general, EC50 refers to the concentration needed to bring the measured effect to its halfway point. A high value points to lower potency in that assay. In the case of `CC(C)c1ccc(S(=O)(=O)c2cnc(C(=O)NCC(O)C(F)(F)F)c(N)c2)cc1` (stereo not shown) [Compound 246, 3-amino-5-{[4-(propan-2-yl)phenyl]sulfonyl}-N-(3,3,3-trifluoro-2-hydroxypropyl)pyridine-2-carboxamide], the “% Activation” value amounted to 118.0% at CFTR ΔF508 mutant and 106.0% at CFTR G551D mutant. Besides, the figures for the EC50 on CFTR ΔF508 mutant and at CFTR G551D mutant were 3.9 nM and 391 nM, respectively.
Taken in the same sequence, the figures for `Nc1cc(S(=O)(=O)c2ccc(C(F)(F)F)cc2F)cnc1C(=O)NCC(O)COCC1CC1` (stereo not shown) [Compound 132, 3-amino-N-[3-(cyclopropylmethoxy)-2-hydroxypropyl]-5-{[2-fluoro-4-(trifluoromethyl)phenyl]sulfonyl}pyridine-2-carboxamide] were 103.5%, 79.2%, 5.1 nM and 395 nM.
The like results for `Nc1cc(S(=O)(=O)c2ccc(OC(F)(F)F)cc2)cnc1C(=O)NCC(O)C(F)F` (stereo not shown) [Compound 279, 3-amino-N-(3,3-difluoro-2-hydroxypropyl)-5-{[4-(trifluoromethoxy)phenyl]sulfonyl}pyridine-2-carboxamide] were, in that order, 113.0%, 57.2%, 1.7 nM and 662 nM.
The like results for `C[C@H]1CCCN1S(=O)(=O)c1cnc(C(=O)NCC(O)C(F)(F)F)c(N)c1` (stereo partly drawn) [Compound 181, 3-amino-5-{[(2S)-2-methylpyrrolidin-1-yl]sulfonyl}-N-(3,3,3-trifluoro-2-hydroxypropyl)pyridine-2-carboxamide] were, in that order, 90.6%, 61.4%, 19.8 nM and 1330 nM.
`C[C@H](O)CNC(=O)c1nc(C2CC2)c(S(=O)(=O)c2ccc(OC(F)(F)F)cc2)cc1N` [Compound 290, 3-amino-6-cyclopropyl-N-[(2S)-2-hydroxypropyl]-5-{[4-(trifluoromethoxy)phenyl]sulfonyl}pyridine-2-carboxamide]: at CFTR ΔF508 mutant, the “% Activation” value was found to be 88.2% and the EC50 is 3 nM. Also, on CFTR G551D mutant, the “% Activation” value amounted to 73.2% and a half-maximal effect (EC50) was put at 473 nM.
Taken in the same sequence, the figures for `Nc1cc(S(=O)(=O)c2ccc(C(F)(F)F)cc2F)cnc1C(=O)NCCO` [Compound 219, 3-amino-5-{[2-fluoro-4-(trifluoromethyl)phenyl]sulfonyl}-N-(2-hydroxyethyl)pyridine-2-carboxamide] were 99.8%, 19.2 nM, 44.7% and 1050 nM.
The like results for `Nc1cc(S(=O)(=O)c2ccc(OC(F)(F)F)cc2)cnc1C(=O)N[C@H]1CCOC1` [Compound 144, 3-amino-N-[(3S)-tetrahydrofuran-3-yl]-5-{[4-(trifluoromethoxy)phenyl]sulfonyl}pyridine-2-carboxamide] were, in that order, 92.6%, 76.1 nM, 50.6% and 1120 nM.
As to `Nc1cc(S(=O)(=O)c2ccc(OC(F)(F)F)cc2)cnc1C(=O)NCC1(CO)CCC1` [Compound 23, 3-amino-N-{[1-(hydroxymethyl)cyclobutyl]methyl}-5-{[4-(trifluoromethoxy)phenyl]sulfonyl}pyridine-2-carboxamide], on CFTR ΔF508 mutant, the “% Activation” value turned out to be 103.9% and the EC50 turned out to be 78.2 nM. In addition, on CFTR G551D mutant, the “% Activation” value is listed as 57.4% and the 50% effective concentration (EC50) turned out to be 2150 nM.
As to `CC(C)COCC(O)CNC(=O)c1ncc(S(=O)(=O)c2ccc(C(F)(F)F)cc2F)cc1N` (stereo not shown) [Compound 170, 3-amino-5-{[2-fluoro-4-(trifluoromethyl)phenyl]sulfonyl}-N-[2-hydroxy-3-(2-methylpropoxy)propyl]pyridine-2-carboxamide], the figures for the “% Activation” value on CFTR ΔF508 mutant and on CFTR G551D mutant were 108.6% and 82.5%, respectively. Moreover, the results for the EC50 on CFTR ΔF508 mutant and on CFTR G551D mutant were 6.6 nM and 251 nM, respectively.
The like results for `CC(C)C[C@H](CO)NC(=O)c1ncc(S(=O)(=O)c2ccc(OC(F)(F)F)cc2)cc1N` [Compound 46, 3-amino-N-[(2R)-1-hydroxy-4-methylpentan-2-yl]-5-{[4-(trifluoromethoxy)phenyl]sulfonyl}pyridine-2-carboxamide] were, in that order, 41.4%, 3.5%, 1160 nM and greater than 10000 nM.
Taken in the same sequence, the figures for `Nc1cc(S(=O)(=O)c2ccc(OC(F)(F)F)cc2)cnc1C(=O)NCC1(CO)CC1` [Compound 22, 3-amino-N-{[1-(hydroxymethyl)cyclopropyl]methyl}-5-{[4-(trifluoromethoxy)phenyl]sulfonyl}pyridine-2-carboxamide] were 102.2%, 53.2%, 54.1 nM and 778 nM.
Taken in the same sequence, the figures for `CC(C)NC(=O)CNC(=O)c1ncc(S(=O)(=O)c2ccc(C(F)(F)F)cc2)cc1N` [Compound 104, 3-amino-N-[2-oxo-2-(propan-2-ylamino)ethyl]-5-{[4-(trifluoromethyl)phenyl]sulfonyl}pyridine-2-carboxamide] were 100.8%, 26.1%, 18.9 nM and greater than 10000 nM.
In the case of `CC(C)(O)C1CN(C(=O)c2ncc(S(=O)(=O)c3ccc(C(F)(F)F)cc3F)cc2N)C1` [Compound 178, (3-amino-5-{[2-fluoro-4-(trifluoromethyl)phenyl]sulfonyl}pyridin-2-yl)[3-(2-hydroxypropan-2-yl)azetidin-1-yl]methanone], on CFTR ΔF508 mutant, the “% Activation” value is listed as 109.7% and the EC50 amounted to 5.6 nM. In addition, on CFTR G551D mutant, the “% Activation” value is listed as 75.8% and it took 322 nM to reach a half-maximal effect (EC50).
As for `CC(C)(C)CNC(=O)c1ncc(S(=O)(=O)c2ccc(C(F)(F)F)cc2)cc1N` [Compound 191, 3-amino-N-(2,2-dimethylpropyl)-5-{[4-(trifluoromethyl)phenyl]sulfonyl}pyridine-2-carboxamide], the results for the “% Activation” value on CFTR ΔF508 mutant and at CFTR G551D mutant were 99.7% and 11.7%, respectively. The results for the EC50 on CFTR ΔF508 mutant and at CFTR G551D mutant were 157 nM and greater than 10000 nM, respectively.
The like results for `CC(C)COCC(O)CNC(=O)c1ncc(S(=O)(=O)c2ccc(C(F)(F)F)cc2)cc1N` (stereo not shown) [Compound 166, 3-amino-N-[2-hydroxy-3-(2-methylpropoxy)propyl]-5-{[4-(trifluoromethyl)phenyl]sulfonyl}pyridine-2-carboxamide] were, in that order, 111.7%, 69.3%, 17.5 nM and 661 nM.
Taken in the same sequence, the figures for `CN(C)C(=O)C1CN(C(=O)c2ncc(S(=O)(=O)c3ccc(OC(F)(F)F)cc3)cc2N)C1` [Compound 62, 1-[(3-amino-5-{[4-(trifluoromethoxy)phenyl]sulfonyl}pyridin-2-yl)carbonyl]-N,N-dimethylazetidine-3-carboxamide] were 91.8%, 49.3%, 140 nM and 1390 nM.
The like results for `CC(C)OCCNC(=O)c1ncc(S(=O)(=O)c2ccc(C(F)(F)F)cc2)cc1N` [Compound 192, 3-amino-N-[2-(propan-2-yloxy)ethyl]-5-{[4-(trifluoromethyl)phenyl]sulfonyl}pyridine-2-carboxamide] were, in that order, 101.5%, 58.4%, 38.8 nM and 868 nM.
With `Nc1cc(S(=O)(=O)c2ccc(OC(F)(F)F)cc2)cnc1C(=O)N1CCC1` [Compound 65, (3-amino-5-{[4-(trifluoromethoxy)phenyl]sulfonyl}pyridin-2-yl)(azetidin-1-yl)methanone], at CFTR ΔF508 mutant, the “% Activation” value is 119.0% and the midpoint of the response, the EC50, lay at 41.4 nM. In addition, at CFTR G551D mutant, the “% Activation” value came out at 67.8% and the half-maximal effective concentration (EC50) came to 1160 nM.
Taken in the same sequence, the figures for `Nc1cc(S(=O)(=O)c2ccc(OC(F)(F)F)cc2)cnc1C(=O)NCCC1CC1` [Compound 152, 3-amino-N-(2-cyclopropylethyl)-5-{[4-(trifluoromethoxy)phenyl]sulfonyl}pyridine-2-carboxamide] were 93.3%, 119 nM, 60.2% and 1130 nM.
Take `CN1CCC(O)(CNC(=O)c2ncc(S(=O)(=O)c3ccc(OC(F)(F)F)cc3)cc2N)CC1` [Compound 5, 3-amino-N-[(4-hydroxy-1-methylpiperidin-4-yl)methyl]-5-{[4-(trifluoromethoxy)phenyl]sulfonyl}pyridine-2-carboxamide]: on CFTR ΔF508 mutant, the “% Activation” value was found to be 14.8% and the EC50 is greater than 2000 nM. For the same compound, on CFTR G551D mutant, the “% Activation” value stood at 1.7% and the EC50 is greater than 10000 nM.
Taken in the same sequence, the figures for `CN(Cc1ccc(F)cc1F)S(=O)(=O)c1cnc(C(=O)NCC(O)C(F)(F)F)c(N)c1` (stereo not shown) [Compound 137, 3-amino-5-[(2,4-difluorobenzyl)(methyl)sulfamoyl]-N-(3,3,3-trifluoro-2-hydroxypropyl)pyridine-2-carboxamide] were 110.7%, 3.7 nM, 69.6% and 420 nM.
Taken in the same sequence, the figures for `Nc1cc(S(=O)(=O)c2cccc(OC(F)(F)F)c2)cnc1C(=O)NCC(O)C(F)(F)F` (stereo not shown) [Compound 236, 3-amino-N-(3,3,3-trifluoro-2-hydroxypropyl)-5-{[3-(trifluoromethoxy)phenyl]sulfonyl}pyridine-2-carboxamide] were 115.5%, 3.6 nM, 77.2% and 364 nM.
